According to article PMC4685510, “A Cell Biologist’s Field Guide to Aurora Kinase Inhibitors” (Frontiers in Oncology, 2015):
Like-named read-outs stand apart in the source and are kept apart here.

How the values were obtained:
Test in all cases: biochemical
Format in all cases: biochemical
[1] = molecular target: 363 human kinases (including Aurora A/B/C) (Homo sapiens, UniProt Q00526); conditions: CDK3/cyclin E, [ATP] 30 µM; for remaining activity at 0.1 µM: 100 nM; for remaining activity at 0.1 µM / remaining activity at 0.5 µM: read-out: % Enzyme Activity (relative to DMSO controls)
Source text: (§1) However, the Aurora A/B selectivity ratios derived from our in vitro and in vivo data can be compared to prioritize inhibitors.

[2] = molecular target: 363 human kinases (including Aurora A/B/C) (Homo sapiens, UniProt Q13177); conditions: PAK2; for remaining activity at 0.1 µM: 100 nM; for remaining activity at 0.1 µM / remaining activity at 0.5 µM: read-out: % Enzyme Activity (relative to DMSO controls)
Source text: as §1

[3] = molecular target: T1, 363 human kinases (including Aurora A/B/C) (Homo sapiens, UniProt Q14164); conditions: for remaining activity at 0.1 µM: 100 nM
T1 sequence (Q14164 1-716): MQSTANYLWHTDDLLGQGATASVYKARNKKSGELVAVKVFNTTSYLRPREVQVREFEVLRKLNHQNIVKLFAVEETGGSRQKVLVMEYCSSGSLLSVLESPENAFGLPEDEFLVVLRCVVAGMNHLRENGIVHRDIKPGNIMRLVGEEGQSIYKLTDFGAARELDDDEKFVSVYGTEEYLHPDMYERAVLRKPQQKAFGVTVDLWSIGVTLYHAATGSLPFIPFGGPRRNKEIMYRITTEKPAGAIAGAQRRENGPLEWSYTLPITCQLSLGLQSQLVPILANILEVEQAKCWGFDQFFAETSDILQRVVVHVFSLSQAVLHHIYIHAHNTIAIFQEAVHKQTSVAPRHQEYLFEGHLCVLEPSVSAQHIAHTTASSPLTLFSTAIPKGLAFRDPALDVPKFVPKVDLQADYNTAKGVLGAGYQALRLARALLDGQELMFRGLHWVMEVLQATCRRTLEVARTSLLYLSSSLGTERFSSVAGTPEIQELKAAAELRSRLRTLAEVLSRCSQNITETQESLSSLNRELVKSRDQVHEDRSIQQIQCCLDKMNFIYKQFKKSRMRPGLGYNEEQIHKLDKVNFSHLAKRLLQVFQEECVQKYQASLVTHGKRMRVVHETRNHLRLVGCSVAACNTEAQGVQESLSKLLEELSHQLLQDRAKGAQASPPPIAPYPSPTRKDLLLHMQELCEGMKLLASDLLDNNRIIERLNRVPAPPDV
Source text: as §1

[4] = molecular target: 363 human kinases (including Aurora A/B/C) (Homo sapiens, UniProt Q9UPE1); conditions: MSSK1/STK23; for remaining activity at 0.1 µM: 100 nM; for remaining activity at 0.1 µM / remaining activity at 0.5 µM: read-out: % Enzyme Activity (relative to DMSO controls)
Source text: as §1

[5] = molecular target: T2, 363 human kinases (including Aurora A/B/C) (Homo sapiens, UniProt P41743); conditions: PKCiota; for remaining activity at 0.1 µM: 100 nM; for remaining activity at 0.1 µM / remaining activity at 0.5 µM: read-out: % Enzyme Activity (relative to DMSO controls)
T2 sequence (P41743 1-596): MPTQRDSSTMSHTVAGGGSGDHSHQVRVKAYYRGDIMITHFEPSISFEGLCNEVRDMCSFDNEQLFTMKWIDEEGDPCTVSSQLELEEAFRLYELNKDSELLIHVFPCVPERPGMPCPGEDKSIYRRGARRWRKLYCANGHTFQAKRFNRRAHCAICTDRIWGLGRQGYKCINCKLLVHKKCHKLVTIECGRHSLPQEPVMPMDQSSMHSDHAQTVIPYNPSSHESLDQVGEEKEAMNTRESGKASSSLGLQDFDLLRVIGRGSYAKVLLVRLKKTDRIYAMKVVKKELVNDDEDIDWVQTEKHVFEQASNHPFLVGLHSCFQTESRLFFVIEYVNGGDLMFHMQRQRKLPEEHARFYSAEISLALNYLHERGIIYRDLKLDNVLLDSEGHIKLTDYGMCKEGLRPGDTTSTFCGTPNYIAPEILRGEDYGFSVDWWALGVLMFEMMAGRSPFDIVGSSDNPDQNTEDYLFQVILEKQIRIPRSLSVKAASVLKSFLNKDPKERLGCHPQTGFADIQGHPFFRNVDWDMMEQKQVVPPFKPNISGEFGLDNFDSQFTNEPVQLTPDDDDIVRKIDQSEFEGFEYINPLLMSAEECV
Source text: as §1

[6] = molecular target: T3, 363 human kinases (including Aurora A/B/C) (Homo sapiens, UniProt P20794); conditions: MAK; for remaining activity at 0.1 µM: 100 nM; for remaining activity at 0.1 µM / remaining activity at 0.5 µM: read-out: % Enzyme Activity (relative to DMSO controls)
T3 sequence (P20794 1-623): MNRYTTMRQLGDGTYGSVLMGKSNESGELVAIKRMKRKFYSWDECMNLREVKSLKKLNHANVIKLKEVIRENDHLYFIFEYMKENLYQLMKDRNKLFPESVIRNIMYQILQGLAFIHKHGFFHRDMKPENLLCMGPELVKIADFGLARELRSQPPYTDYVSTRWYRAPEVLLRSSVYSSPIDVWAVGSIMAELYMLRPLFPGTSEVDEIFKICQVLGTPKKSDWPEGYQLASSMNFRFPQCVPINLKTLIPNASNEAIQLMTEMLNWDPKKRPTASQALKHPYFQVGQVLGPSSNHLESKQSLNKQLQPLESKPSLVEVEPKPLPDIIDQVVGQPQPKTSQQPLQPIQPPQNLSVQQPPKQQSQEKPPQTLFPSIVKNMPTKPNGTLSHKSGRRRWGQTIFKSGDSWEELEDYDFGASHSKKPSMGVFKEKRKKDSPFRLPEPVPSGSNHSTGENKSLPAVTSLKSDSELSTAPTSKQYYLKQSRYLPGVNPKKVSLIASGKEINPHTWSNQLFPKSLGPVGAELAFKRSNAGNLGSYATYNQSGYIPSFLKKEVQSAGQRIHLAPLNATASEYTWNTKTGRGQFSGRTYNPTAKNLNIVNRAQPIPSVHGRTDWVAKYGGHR
Source text: as §1

[7] = molecular target: 363 human kinases (including Aurora A/B/C) (Homo sapiens, UniProt Q9UQM7); conditions: CAMK2a, [ATP] 100 µM; for remaining activity at 0.1 µM: 100 nM; for remaining activity at 0.1 µM / remaining activity at 0.5 µM: read-out: % Enzyme Activity (relative to DMSO controls)
Source text: as §1

[8] = molecular target: T4, 363 human kinases (including Aurora A/B/C) (Homo sapiens, UniProt O14965); conditions: [ATP] 2.5 µM; for remaining activity at 0.1 µM: 100 nM
T4 sequence (O14965 1-403): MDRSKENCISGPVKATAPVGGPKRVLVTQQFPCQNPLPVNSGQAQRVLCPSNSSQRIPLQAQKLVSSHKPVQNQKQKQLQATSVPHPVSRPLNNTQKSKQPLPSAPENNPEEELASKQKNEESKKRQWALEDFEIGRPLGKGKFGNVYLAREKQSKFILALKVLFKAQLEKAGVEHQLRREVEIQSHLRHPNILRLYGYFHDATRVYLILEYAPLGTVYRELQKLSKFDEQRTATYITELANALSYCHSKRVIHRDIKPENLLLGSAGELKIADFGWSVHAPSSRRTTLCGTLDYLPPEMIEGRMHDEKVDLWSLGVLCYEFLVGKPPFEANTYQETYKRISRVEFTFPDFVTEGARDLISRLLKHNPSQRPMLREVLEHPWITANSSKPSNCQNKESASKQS
Source text: as §1

[9] = IKKe/IKBKE, 500 nM, read-out: % Enzyme Activity (relative to DMSO controls)

Sequence of 363 human kinases (including Aurora A/B/C) (Homo sapiens, UniProt Q9UQM7) (Q9UQM7 whole entry): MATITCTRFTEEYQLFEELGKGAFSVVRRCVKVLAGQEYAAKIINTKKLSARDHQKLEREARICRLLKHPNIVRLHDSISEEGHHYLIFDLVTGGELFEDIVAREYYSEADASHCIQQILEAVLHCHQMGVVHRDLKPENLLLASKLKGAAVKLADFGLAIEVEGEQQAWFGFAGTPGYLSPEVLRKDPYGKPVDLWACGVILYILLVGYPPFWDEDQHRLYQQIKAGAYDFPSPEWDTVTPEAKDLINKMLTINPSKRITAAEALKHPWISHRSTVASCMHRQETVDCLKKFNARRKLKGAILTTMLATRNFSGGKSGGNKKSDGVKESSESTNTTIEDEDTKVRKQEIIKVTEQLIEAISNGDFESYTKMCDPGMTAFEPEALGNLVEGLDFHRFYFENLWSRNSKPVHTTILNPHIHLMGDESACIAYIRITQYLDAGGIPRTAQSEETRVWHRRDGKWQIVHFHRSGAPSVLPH
Sequence of 363 human kinases (including Aurora A/B/C) (Homo sapiens, UniProt Q9UPE1) (Q9UPE1 whole entry): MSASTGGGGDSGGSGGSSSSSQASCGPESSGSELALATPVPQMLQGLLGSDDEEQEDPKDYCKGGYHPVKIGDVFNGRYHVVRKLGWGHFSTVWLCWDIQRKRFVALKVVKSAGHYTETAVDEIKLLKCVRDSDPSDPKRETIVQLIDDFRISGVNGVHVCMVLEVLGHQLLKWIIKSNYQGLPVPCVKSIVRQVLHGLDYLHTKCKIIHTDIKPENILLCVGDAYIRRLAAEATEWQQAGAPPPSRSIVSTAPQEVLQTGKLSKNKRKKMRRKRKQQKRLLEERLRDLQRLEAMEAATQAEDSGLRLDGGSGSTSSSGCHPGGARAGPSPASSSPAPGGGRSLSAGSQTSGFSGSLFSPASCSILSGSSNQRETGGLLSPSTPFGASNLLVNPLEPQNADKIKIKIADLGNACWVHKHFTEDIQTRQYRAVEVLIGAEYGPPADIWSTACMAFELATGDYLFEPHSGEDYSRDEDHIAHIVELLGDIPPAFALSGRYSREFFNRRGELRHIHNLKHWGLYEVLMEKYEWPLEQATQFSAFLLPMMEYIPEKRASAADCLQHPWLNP
Sequence of 363 human kinases (including Aurora A/B/C) (Homo sapiens, UniProt Q00526) (Q00526 whole entry): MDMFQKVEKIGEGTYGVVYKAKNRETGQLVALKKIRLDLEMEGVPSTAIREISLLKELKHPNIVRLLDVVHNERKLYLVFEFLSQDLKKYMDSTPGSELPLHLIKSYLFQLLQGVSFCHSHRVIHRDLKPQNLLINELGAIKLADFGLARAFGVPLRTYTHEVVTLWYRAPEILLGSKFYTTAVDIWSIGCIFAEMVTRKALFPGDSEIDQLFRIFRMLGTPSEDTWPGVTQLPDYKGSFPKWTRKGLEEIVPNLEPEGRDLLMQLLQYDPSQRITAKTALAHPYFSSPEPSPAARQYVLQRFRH
Sequence of 363 human kinases (including Aurora A/B/C) (Homo sapiens, UniProt Q13177) (Q13177 whole entry): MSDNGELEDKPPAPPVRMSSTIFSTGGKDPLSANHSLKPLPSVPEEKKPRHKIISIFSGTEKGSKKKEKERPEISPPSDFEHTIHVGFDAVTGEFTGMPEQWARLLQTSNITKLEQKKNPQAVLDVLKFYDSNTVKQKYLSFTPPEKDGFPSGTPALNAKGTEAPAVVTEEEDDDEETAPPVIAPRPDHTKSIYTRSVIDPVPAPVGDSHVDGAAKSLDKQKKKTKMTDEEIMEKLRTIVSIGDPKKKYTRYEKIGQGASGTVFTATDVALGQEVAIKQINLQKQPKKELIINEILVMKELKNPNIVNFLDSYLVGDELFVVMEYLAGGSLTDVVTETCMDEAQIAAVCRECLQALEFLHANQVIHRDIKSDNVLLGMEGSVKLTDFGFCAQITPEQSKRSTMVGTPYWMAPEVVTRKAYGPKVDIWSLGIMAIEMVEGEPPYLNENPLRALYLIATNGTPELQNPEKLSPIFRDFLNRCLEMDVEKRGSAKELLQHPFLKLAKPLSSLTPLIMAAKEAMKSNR

Compound	remaining activity at 0.1 µM [1]	remaining activity at 0.1 µM [2]	remaining activity at 0.1 µM [4]	remaining activity at 0.1 µM [5]	remaining activity at 0.1 µM [6]	remaining activity at 0.1 µM [7]	remaining activity at 0.5 µM ([1]; 500 nM)	remaining activity at 0.5 µM ([2]; 500 nM)	remaining activity at 0.5 µM [3, 9]	remaining activity at 0.5 µM ([4]; 500 nM)	remaining activity at 0.5 µM ([5]; 500 nM)	remaining activity at 0.5 µM ([6]; 500 nM)	remaining activity at 0.5 µM ([7]; 500 nM)	other results
CCn1cc(-c2ccnc3[nH]c(-c4cccc(CN(C)C)c4)cc23)c(-c2ccc(NC(=O)N(C)C)cc2)n1 [GSK1070916]	83.7%	106%	95.5%	99.1%	100%	102%	–	–	–	–	–	–	–	remaining activity at 0.1 µM ([3]; read-out: % Enzyme Activity (relative to DMSO controls), IKKe/IKBKE): 84.4%; remaining activity at 0.1 µM ([8]; read-out: % Enzyme Activity (relative to DMSO controls), Aurora A): 25.9%
O=C(O)[C@]1(Cc2cccc(Nc3nccs3)n2)CC[C@@H](Oc2cccc(Cl)c2F)CC1 [MK-5108]	88.3%	97.1%	99%	94.3%	84.8%	95.4%	80.5%	98.2%	80.6%	85%	102%	79.5%	101%	remaining activity at 0.1 µM ([3]; IKKe/IKBKE, read-out: % Enzyme Activity (relative to DMSO controls)): 98.3%; remaining activity at 0.1 µM ([8]; Aurora A, read-out: % Enzyme Activity (relative to DMSO controls)): 2.38%
O=C(c1cccc(Cl)c1F)N1CCN(Cc2cccc(Nc3nccs3)n2)CC1 [MK-8745]	–	–	–	–	–	–	78.6%	105%	92.2%	93.6%	98%	87%	104%	% Enzyme Activity (relative to DMSO controls) ([1]; 500 nM): 77.67%; % Enzyme Activity (relative to DMSO controls) ([2]; 500 nM): 102.92%; % Enzyme Activity (relative to DMSO controls) ([3]; IKKe/IKBKE, 500 nM): 89.47%; % Enzyme Activity (relative to DMSO controls) ([4]; 500 nM): 93.46%; % Enzyme Activity (relative to DMSO controls) ([5]; 500 nM): 95.15%; % Enzyme Activity (relative to DMSO controls) ([6]; 500 nM): 86.85%; % Enzyme Activity (relative to DMSO controls) ([7]; 500 nM): 101.40%; % Enzyme Activity (relative to DMSO controls) ([8]; Aurora A, 500 nM): 0.37%; remaining activity at 0.5 µM ([8]; Aurora A, 500 nM, read-out: % Enzyme Activity (relative to DMSO controls)): 0.55%
